Patent US20120196884A1, “UREA SUBSTITUTED SULPHONAMIDE DERIVATIVES” (BIOTIE THERAPIES CORPORATION, priority 2009, published 2012)
Entries after “also recorded” stand apart in the source; their conditions may differ.

Key:
[1] = test system: platelet adhesion to collagen; experiment: Cellix microfluidic system: platelet adhesion to collagen coated capillary under flow; format: cell-based, human; parameters: key to Inhibition of platelet adhesion to collagen: + indictes that the compound efficiently inhibited the platelet adhesion to collagen; settings: for Inhibition of platelet adhesion to collagen: whole blood, collagen coated capillary, shear 90 dynes/cm^2
Description: Cellix microfluidic platform models human blood vessels providing a dynamic set-up mimicking physiological conditions to test new therapeutic agents (Cellix Ltd). The platform was used to measure the platelet adhesion to collagen coated capillary under flow. An anti-coaculated whole blood sample was run through a collagen coated capillary under a constant shear and the size of thrombi on capillary wall was analyzed with analysis program (DucoCell, Cellix Ltd).
The capillary were coated with Horm collagen 20 μg/mL (Nycomed) and incubated for 24 h in +4° C. Background was blocked with 1% BSA (bovine serum albumin, Sigma) treatment for 30 min in room temperature. Blood was collected from a donor into blood collection tubes containing 40 μM PPACK (Dphenylalanyl-L-prolyl-L-arginine chloromethyl-ketone, Calbiochem) as anticoagulant. Blood was treated either with inhibitory compounds or vehicle controls. Samples were kept at room temperature for 5 minutes. The samples were run through the capillary with the constant shear rate (90 dynes/cm^2, Mirus 1.0 Nanopump, Cellix Ltd) for 5 min and capillary was washed with JNL buffer (6 mM Dextrose, 0.13 M NaCl, 9 mM Na Bicarb, 10 mM Na Citrate, 10 mM Tris base, 3 mM KCl, 0.81 mM KH2PO4, 0.9 mM MgCl2; pH was adjusted to 7.35 with 19 mM Citrate acid anhydrous, 37 mM Sodium citrate, 67 mM Dextrose) with the constant shear rate (90 dynes/cm^2) for 2 min. After that the average thrombi area on the capillary wall was analyzed with DucoCell analysis program (Cellix Ltd).

PC-3 cells = experiment: PC-3 cell invasion through Matrigel; format: cell-based; settings: Homo sapiens, 72 hours
Text: The overexpression regulates cell adhesion and migration to and invasion through the extracellular matrix. By blocking the interaction between extracellular matrix components like collagen and α2β1 it is possible to block cancer cell migration and invasion in vitro. Prostate cancer cells (PC-3) expressing α2β1 endogenously were used to test the in vitro anticancer potential of the inhibitors of the present invention.
Invasion of PC-3 cells (CRL-1435, ATCC) through Matrigel was studied using BD Biocoat invasion inserts (BD Biosciences). Inserts were stored at −20° C. Before the experiments inserts were allowed to adjust to the room temperature. 500 μl of serum free media (Ham's F12K medium, 2 mM Lglutamine, 1.5 g/l sodium bicarbonate) was added into the inserts and allowed to rehydrate at 37° C. in cell incubator for two hours. The remaining media was aspirated. PC-3 cells were detached, pelleted and suspended into serum free media (50 000 cells/500 μL). 300 μL of cell suspension was added into the insert in the absence (control) or presence of the inhibitor according to the present invention. Inserts were placed on the 24-well plates; each well containing 700 μL of cell culture media with 3% of fetal bovine serum as chemoattractant. Cells were allowed to invade for 72 hours at 37° C. in cell incubator. Inserts were washed with 700 μL PBS, and fixed with 4% paraformaldehyde for 10 minutes. Paraformaldehyde was aspirated and cells were washed with 700 μL of PBS and inserts were stained by incubation with hematoxylin for 1 minute. The stain was removed by washing the inserts with 700 μL of PBS. Inserts were allowed to dry. Fixed invaded cells were calculated under the microscope. Invasion % was calculated as a comparison to the control.

IL-6 = experiment: LPS-induced IL-6 release in whole blood; format: cell-based, human; settings: LPS 0.25 ng/mL, 2 h
Description: The inflammatory cells are shown to be dependent on α2β1 function during inflammatory process. The anti-inflammatory potential of the α2β1 modulators was studied by measuring the effect on the release of cytokines like IL-6 as an example from inflammatory cells. Lipopolysaccharide (LPS) was used to induce the production of IL-6. Anticoaculated whole blood sample was incubated with or without the integrin α2β1 inhibitor before LPS was added to induce the cytokine release. The amount of cytokine IL-6 released from peripheral blood leukocytes was measured from plasma samples 2 hours after the induction.
Blood was collected from the donors via venipuncture into evacuated Lithium heparin tubes (VenoJect, Terumo). Blood was treated with either α2β1 integrin inhibitors or vehicle control (DMSO). Samples were kept at room temperature for 5 minutes and lipopolysaccharide (LPS, 0.25 ng/mL) was added to induce cytokine release from peripheral blood lymphocytes. Samples were inculabted for 2 h in 37° C., the plasma was isolated and the amount of IL-6 was determined with Human IL-6 Quantikine ELISA Kit (R&D Systems).

whole blood = experiment: PFA-100 platelet function analyzer, closure time of whole blood; format: cell-based; settings: PFA-100 analysis, collagen and ADP membrane
Description: The PFA-100 is a high shear-inducing device that simulates primary haemostasis after injury of a small vessel. The system comprises a test-cartridge containing a biologically active membrane coated with collagen and ADP. An anticoaculated whole blood sample was run through a capillary under a constant vacuum. […] The time required to obtain full occlusion of the aperture was designated as the closure time. Each compound was added to the whole blood sample and the closure time was measured with PFA-100.
Blood was collected from a donor via venipuncture into evacuated blood collection Lithium heparin tubes (VenoJect, Terumo). Blood was aliquoted into 1.5 mL tubes and treated with either inhibitory compounds or controls (DMSO). Samples were kept at room temperature with rotation for 10 minutes and after that the closure time (Ct) of the blood was measured.

Row | SMILES | Inhibition of platelet adhesion to collagen [1] | inhibition at 5 µM (PC-3 cells) [%] | also measured
1 | CN(c1ccc(NC(=O)Nc2ccccc2)cc1)S(=O)(=O)c1cnn(-c2ccc(F)cn2)c1 [Compound B1] | + |  | platelet adhesion to collagen coated capillary under flow (FIG. 1) ([1]; Cellix analysis, flow conditions): dose dependent inhibitory effect; also recorded: inhibits the platelet adhesion to collagen coated capillary under mimicking physiological flow conditions dose dependently
2 | CN(c1ccc(NC(=O)Nc2ccccc2)cc1)S(=O)(=O)c1ccc(Cl)cc1Cl [Compound B77] |  | 40 | 
3 | CN(c1ccc(NC(=O)Nc2ccccc2)cc1)S(=O)(=O)c1cccc(-c2ccc(F)cc2)c1 [Compound B55] |  | 76 | 
4 | CN(c1ccc(NC(=O)Nc2ccccc2)cc1)S(=O)(=O)c1cc(C(F)(F)F)ccc1Cl [Compound B80] |  | 43 | 
5 | CN(c1ccc(NC(=O)Nc2ccccc2)cc1)S(=O)(=O)c1ccc(-c2cc(C(F)(F)F)nn2C)s1 [Compound B19] | + |  | 
6 | CN(c1ccc(NC(=O)Nc2ccccc2)cc1)S(=O)(=O)c1ccc(-c2ccnn2C)s1 [Compound B6] |  |  | release of IL-6 after induction with LPS (IL-6): decreases the release of cytokines like IL-6
7 | Cc1ccc(NC(=O)Nc2ccccc2)cc1N(C)S(=O)(=O)c1cccc(-c2ccc(F)cc2)c1 [Compound B63] |  | 45 | 
8 | Cc1ccc(NC(=O)NCc2ccccc2)cc1NS(=O)(=O)c1cccc(-c2ccc(F)cc2)c1 [Compound B67] | + | 10 | 
9 | O=C(Nc1ccncc1)Nc1ccc(NS(=O)(=O)c2cccc(-c3ccc(F)cc3)c2)cc1 [Compound B93] | + |  | 
10 | O=C(Nc1ccccc1)Nc1ccc(Cl)c(NS(=O)(=O)c2cccc(-c3ccc(F)cc3)c2)c1 [Compound B86] |  | 44 | 
11 | CN(c1ccc(NC(=O)Nc2ccccc2)cc1)S(=O)(=O)c1cccc(C#N)c1 [Compound B78] | + | 30 | 
12 | O=C(Nc1ccccc1)Nc1ccc(NS(=O)(=O)c2cccc(-c3ccc(F)cc3)c2)cc1 [Compound B94] | + | 40 | closure time (Ct) of the whole blood (whole blood): increases the closure time (Ct)
13 | CN(c1ccc(NC(=O)Nc2ccncc2)cc1)S(=O)(=O)c1cccc(-c2ccc(F)cc2)c1 [Compound B75] |  | 38 | 
14 | Cc1ccc(NC(=O)Nc2ccccc2)cc1NS(=O)(=O)c1cccc(-c2ccc(F)cc2)c1 [Compound B40] | + | 98 | 
15 | O=C(Nc1ccccc1)Nc1cc(NS(=O)(=O)c2cccc(-c3ccc(F)cc3)c2)ccc1Cl [Compound B47] |  | 96 | 
16 | O=C(NCc1ccccc1)Nc1ccc(NS(=O)(=O)c2cccc(-c3ccc(F)cc3)c2)cc1 [Compound B91] |  | 56 | 
17 | CN(C)c1ccc(-c2ccc(S(=O)(=O)N(C)c3ccc(NC(=O)Nc4ccccc4)cc3)s2)cn1 [Compound B7] | + |  | 
18 | Cc1ccccc1NC(=O)Nc1ccc(NS(=O)(=O)c2cccc(-c3ccc(F)cc3)c2)cc1 [Compound B64] |  | 42 | 
19 | Cc1ccccc1NC(=O)Nc1ccc(C)c(NS(=O)(=O)c2cccc(-c3ccc(F)cc3)c2)c1 [Compound B42] | + |  | 
20 | Cc1nn(-c2ccc(F)cc2)c(C)c1S(=O)(=O)N(CCCO)c1ccc(NC(=O)Nc2ccccc2)cc1 [Compound B54] | + |  | 
21 | COc1ccc(NC(=O)Nc2ccc(NS(=O)(=O)c3cccc(-c4ccc(F)cc4)c3)cc2)cc1 [Compound B72] |  | 39 | 
22 | CN(c1ccc(NC(=O)Nc2ccccc2)cc1)S(=O)(=O)c1ccc(-n2ccnc2)s1 [Compound B17] | + |  | 
23 | CN(c1ccc(NC(=O)Nc2ccccc2)cc1)S(=O)(=O)c1cncc(-c2ccc(F)cc2)c1 [Compound B52] |  | 25 | 
24 | CN(c1ccc(NC(=O)Nc2ccccc2)cc1)S(=O)(=O)c1cccc(OC(F)F)c1 [Compound B68] |  | 29 | 
25 | COCCOc1cccc(NC(=O)Nc2ccc(NS(=O)(=O)c3cccc(-c4ccc(F)cc4)c3)cc2)c1 [Compound B60] | + | 70 | 
26 | CN(c1ccc(NC(=O)Nc2ccccc2)cc1)S(=O)(=O)c1ccc(-c2ccccn2)s1 [Compound B11] | + |  | 
27 | O=C(Nc1ccccc1)Nc1ccc(N(CCCO)S(=O)(=O)c2cccc(-c3ccc(F)cc3)c2)cc1 [Compound B33] | + |  | 
28 | COc1ccc(-n2cc(S(=O)(=O)N(C)c3ccc(NC(=O)Nc4ccccc4)cc3)cn2)cn1 [Compound B109] | + |  | 
29 | CN(c1ccc(NC(=O)Nc2ccccc2)cc1)S(=O)(=O)c1cnn(-c2ccc(F)cc2)c1 [Compound B3] | + |  | 
